Assay results reported in patent US7300645B2, “Oral composition comprising isomalt and remineralizing enhancing agent” (Sunstar Kabushiki Kaisha, priority 1998, dated 2007).

Assay: Remineralizing ability 1: bovine enamel block with artificial caries immersed in sugar test solution
Conditions: sugar 20% in 3.0 mM calcium ion / 1.8 mM phosphate ion, immersed ten days
Method: The remineralization effect of the sugars was evaluated in an in vitro test using a bovine tooth according to the procedures described in D. J. White et al., Caries Res., 21, 228 (1987).
1. An enamel section having 4 mm length×3 mm width was obtained from the bovine tooth. The section was embedded in a dental resin to obtain an enamel block.
2. An enamel varnish was applied to a portion of approximately ⅓ of the surface of the enamel block in order not to cause the demineralization of that portion. Then, the enamel block was demineralized with a demineralizing solution containing 50% of saturated hydroxyapatite/0.1M lactic acid/pH 5.0 to prepare an artificial caries.
3. An enamel varnish was applied to a portion of approximately ⅔ of the surface of the treated enamel block in order not to cause the remineralization of that portion. The enamel block was immersed for ten days in a test solution prepared by adding the test sugar into an aqueous solution containing 3.0 mM calcium ion and 1.8 mM phosphate ion so that the concentration of the sugar became 20%, to perform the remineralization treatment.
4. Three thin sections having approximately 500 μm in thickness were prepared from the enamel block. The central portion of the thin sections was ground so that the thickness became approximately 100 μm using a double-side polishing machine.
5. The X-ray photograph was taken of the thin section prepared in the fourth step. The mineral amounts of the demineralized portion and the remineralized portion were calculated based on the brightness of the each portion and a distance from the surface using an image processor. The mineral amount difference between the demineralized and remineralized portions was expressed as a remineralization value. […] A control test was performed in a similar manner to that described above, except that the test solution containing only 3.0 mM calcium ion and 1.8 mM phosphate ion but not containing the sugar was used.
Further, a similar test was performed in which sodium fluoride was added to the test solution to 2 ppm in terms of fluoride ion.

[1] = sodium fluoride added to 2 ppm fluoride ion

Row | Compound | Remineralization value [1] [Vol. % μm] | Remineralization value (system not containing fluoride) [Vol. % μm]
1 | OC[C@@H](O)[C@H](O)[C@@H](O)CO [Xylitol] | 1636 | 416
2 | α-D-glucopyranosyl-1,6-mannitol, its isomer, α-D-glucopyranosyl-1,6-sorbitol or a mixture thereof [Palatinit] | 2374 | 1057
3 | OC[C@@H](O)[C@@H](O)CO [Erythritol] | 1330 | 602
4 | OC[C@H]1O[C@H](O[C@H]2O[C@H](CO)[C@@H](O)[C@H](O)[C@H]2O)[C@H](O)[C@@H](O)[C@@H]1O [Trehalose] | 1205 | 715
5 | OC[C@@H](O)[C@@H](O)[C@H](O)[C@@H](O)CO [Sorbitol] | 1358 | 645
6 | OC[C@@H](O)[C@@H](O)[C@H](O)[C@H](O)CO [Mannitol] | 1377 | 640
